Measured values: US20040063662A1, “Selenophene anti-tumor agents” (priority 1996, published 2004)

Columns and labels:
MDA-MB-231/ATCC = assay: NCI human tumor cell panel: MDA-MB-231/ATCC (Breast Cancer); assay type: cell-based; conditions: Homo sapiens, MDA-MB-231, MDA-MB-231/ATCC
[1] = test system: panel of sixty different human tumor cell lines; assay: NCI human tumor cell panel: whole panel (mean graph summary); conditions: whole panel
SK-OV-3 = assay: NCI human tumor cell panel: SK-OV-3 (Ovarian Cancer); assay type: cell-based; conditions: SK-OV-3, read-out: Log10 GI50 (converted)
A498 = assay: NCI human tumor cell panel: A498 (Renal Cancer); assay type: cell-based
EKVX = assay: NCI human tumor cell panel: EKVX (Non-Small Cell Lung Cancer); assay type: cell-based
NCI-H23 = assay: NCI human tumor cell panel: NCI-H23 (Non-Small Cell Lung Cancer); assay type: cell-based
RXF-393 = assay: NCI human tumor cell panel: RXF-393 (Renal Cancer); assay type: cell-based
OVCAR-4 = assay: NCI human tumor cell panel: OVCAR-4 (Ovarian Cancer); assay type: cell-based
HT29 = assay: NCI human tumor cell panel: HT29 (Colon Cancer); assay type: cell-based; conditions: HT-29, HT29, read-out: Log10 TGI (converted)
NCI-H226 = assay: NCI human tumor cell panel: NCI-H226 (Non-Small Cell Lung Cancer); assay type: cell-based
T-47D = assay: NCI human tumor cell panel: T-47D (Breast Cancer); assay type: cell-based; conditions: T47D
SW-620 = assay: NCI human tumor cell panel: SW-620 (Colon Cancer); assay type: cell-based
SN12C = assay: NCI human tumor cell panel: SN12C (Renal Cancer); assay type: cell-based
MALME-3M = assay: NCI human tumor cell panel: MALME-3M (Melanoma); assay type: cell-based; conditions: Malme-3M
OVCAR-5 = assay: NCI human tumor cell panel: OVCAR-5 (Ovarian Cancer); assay type: cell-based
UACC-62 = assay: NCI human tumor cell panel: UACC-62 (Melanoma); assay type: cell-based
KM12 = assay: NCI human tumor cell panel: KM12 (Colon Cancer); assay type: cell-based
NCI-H522 = assay: NCI human tumor cell panel: NCI-H522 (Non-Small Cell Lung Cancer)
SF-268 = assay: NCI human tumor cell panel: SF-268 (CNS Cancer); assay type: cell-based
SK-MEL-28 = assay: NCI human tumor cell panel: SK-MEL-28 (Melanoma); assay type: cell-based
HL-60(TB) = assay: NCI human tumor cell panel: HL-60(TB) (Leukemia); assay type: cell-based
HCT-15 = assay: NCI human tumor cell panel: HCT-15 (Colon Cancer); assay type: cell-based
COLO 205 = assay: NCI human tumor cell panel: COLO 205 (Colon Cancer); assay type: cell-based
SR = assay: NCI human tumor cell panel: SR (Leukemia); assay type: cell-based
NCI-H322M = assay: cells; assay type: cell-based; conditions: Homo sapiens
HOP-62 = assay: NCI human tumor cell panel: HOP-62 (Non-Small Cell Lung Cancer); assay type: cell-based
CAKI-1 = assay: NCI human tumor cell panel: CAKI-1 (Renal Cancer); assay type: cell-based
SF-539 = assay: NCI human tumor cell panel: SF-539 (CNS Cancer); assay type: cell-based
SK-MEL-2 = assay: NCI human tumor cell panel: SK-MEL-2 (Melanoma); assay type: cell-based
[2] = read-out: Log10 GI50 (converted)
[3] = read-out: Log10 TGI (converted)

**Q.** What does the source list for `OCc1ccc(-c2ccc(-c3ccc(CO)s3)[se]2)s1` [compound 675343]?
**A.** GI50 (MDA-MB-231/ATCC; [2]): > 100 µM; IC (TGI) (MDA-MB-231/ATCC; [3]): > 100 µM; Log10 GI50, Delta [1]: −5.36; Log10 LC50, Delta [1]: −4.06; Log10 TGI, Delta [1]: −4.41; Log10 TGI, Range [1]: 3.59; GI50 (SK-OV-3): > 100 µM; GI50 (A498; A498, read-out: Log10 GI50 (converted)): < 0.01 µM; IC (TGI) (A498; A498, read-out: Log10 TGI (converted)): < 0.01 µM; GI50 (EKVX; [2]): > 100 µM; IC (TGI) (EKVX; [3]): > 100 µM; GI50 (NCI-H23; NCI-H23, read-out: Log10 GI50 (converted)): > 100 µM; IC (TGI) (NCI-H23; NCI-H23, read-out: Log10 TGI (converted)): > 100 µM; GI50 (RXF-393; RXF-393, read-out: Log10 GI50 (converted)): 20.9 µM; IC (TGI) (RXF-393; RXF-393, read-out: Log10 TGI (converted)): > 100 µM; GI50 (OVCAR-4; OVCAR-4, read-out: Log10 GI50 (converted)): < 0.01 µM; IC (TGI) (OVCAR-4; OVCAR-4, read-out: Log10 TGI (converted)): > 100 µM; IC (TGI) (HT29): > 100 µM; GI50 (NCI-H226; NCI-H226, read-out: Log10 GI50 (converted)): < 0.01 µM; IC (TGI) (NCI-H226; NCI-H226, read-out: Log10 TGI (converted)): 0.0724 µM; GI50 (T-47D; [2]): 0.724 µM; IC (TGI) (T-47D; [3]): > 100 µM; GI50 (SW-620; SW-620, read-out: Log10 GI50 (converted)): < 0.01 µM; IC (TGI) (SW-620; SW-620, read-out: Log10 TGI (converted)): > 100 µM; GI50 (SN12C; [2]): > 100 µM; IC (TGI) (SN12C; [3]): > 100 µM; GI50 (MALME-3M; [2]): > 100 µM; IC (TGI) (MALME-3M; [3]): > 100 µM; GI50 (OVCAR-5; OVCAR-5, read-out: Log10 GI50 (converted)): 0.158 µM; IC (TGI) (OVCAR-5; OVCAR-5, read-out: Log10 TGI (converted)): > 100 µM; GI50 (UACC-62; UACC-62, read-out: Log10 GI50 (converted)): < 0.01 µM; IC (TGI) (UACC-62; UACC-62, read-out: Log10 TGI (converted)): > 100 µM; GI50 (KM12; KM12, read-out: Log10 GI50 (converted)): > 100 µM; IC (TGI) (KM12; KM12, read-out: Log10 TGI (converted)): > 100 µM; GI50 (NCI-H522; NCI-H522, read-out: Log10 GI50 (converted)): ≥ 100 µM; IC (TGI) (NCI-H522; NCI-H522, read-out: Log10 TGI): > 100 µM; GI50 (SF-268; SF-268, read-out: Log10 GI50 (converted)): > 100 µM; IC (TGI) (SF-268; SF-268, read-out: Log10 TGI (converted)): > 100 µM; GI50 (SK-MEL-28; SK-MEL-28, read-out: Log10 GI50 (converted)): > 100 µM; IC (TGI) (SK-MEL-28; SK-MEL-28, read-out: Log10 TGI (converted)): > 100 µM; GI50 (HL-60(TB); [2]): 61.7 µM; IC (TGI) (HL-60(TB); read-out: Log10 TGI): > 100 µM; GI50 (HCT-15; HCT-15, read-out: Log10 GI50 (converted)): > 100 µM; IC (TGI) (HCT-15; HCT-15, read-out: Log10 TGI (converted)): > 100 µM; GI50 (COLO 205; COLO 205, read-out: Log10 GI50 (converted)): < 0.01 µM; IC (TGI) (COLO 205; COLO 205, read-out: Log10 TGI (converted)): 1.05 µM; GI50 (SR; [2]): > 100 µM; IC (TGI) (SR; [3]): > 100 µM; GI50 (NCI-H322M; [2]): 9.77 µM; IC (TGI) (NCI-H322M; [3]): > 100 µM; GI50 (HOP-62; HOP-62, read-out: Log10 GI50 (converted)): > 100 µM; IC (TGI) (HOP-62; HOP-62, read-out: Log10 TGI (converted)): > 100 µM; GI50 (CAKI-1; CAKI-1, read-out: Log10 GI50 (converted)): < 0.01 µM; IC (TGI) (CAKI-1; CAKI-1, read-out: Log10 TGI (converted)): < 0.01 µM; GI50 (SF-539; SF-539, read-out: Log10 GI50 (converted)): > 100 µM; IC (TGI) (SF-539; SF-539, read-out: Log10 TGI (converted)): > 100 µM; GI50 (SK-MEL-2; SK-MEL-2, read-out: Log10 GI50 (converted)): > 100 µM; IC (TGI) (SK-MEL-2; SK-MEL-2, read-out: Log10 TGI (converted)): > 100 µM
